Patent US20140073651A1, “BENZAMIDE DERIVATIVES AS P2X7 RECEPTOR ANTAGONISTS” (Actelion Pharmaceuticals Ltd., priority 2011, published 2014)

What follows are molecules tested against T1, human recombinant P2X7 receptor (Homo sapiens, UniProt Q99572) (assay: YO-PRO assay (YO-PRO-1 uptake) in HEK cells stably expressing P2X7). Details: HEK-293 cells expressing human recombinant P2X7 receptor; ATP 250 μM, 90 minutes; YO-PRO-1 fluorescence (FLIPR tetra); read-out: IC50 (antagonistic activity with respect to the P2X7 receptor).
T1 construct: expressed in transfected cells
T1 sequence (Q99572 1-595): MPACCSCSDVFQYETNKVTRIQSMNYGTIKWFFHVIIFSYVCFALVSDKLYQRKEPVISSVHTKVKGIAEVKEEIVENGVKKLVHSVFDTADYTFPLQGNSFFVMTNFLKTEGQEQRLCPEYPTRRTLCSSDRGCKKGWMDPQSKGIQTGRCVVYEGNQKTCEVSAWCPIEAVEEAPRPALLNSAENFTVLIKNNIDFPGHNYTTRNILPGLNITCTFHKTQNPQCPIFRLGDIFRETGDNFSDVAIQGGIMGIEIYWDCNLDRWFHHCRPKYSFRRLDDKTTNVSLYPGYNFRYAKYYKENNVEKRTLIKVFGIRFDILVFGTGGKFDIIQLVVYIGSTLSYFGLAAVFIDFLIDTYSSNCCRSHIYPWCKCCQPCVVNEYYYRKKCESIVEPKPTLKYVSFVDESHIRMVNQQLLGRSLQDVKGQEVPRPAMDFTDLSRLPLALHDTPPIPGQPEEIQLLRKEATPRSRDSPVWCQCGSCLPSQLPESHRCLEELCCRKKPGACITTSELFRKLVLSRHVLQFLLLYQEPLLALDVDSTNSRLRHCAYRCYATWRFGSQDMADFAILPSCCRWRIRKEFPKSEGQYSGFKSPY
Format: cell-based
Method in brief: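 Antagonist serially diluted (duplicates) on P2X7-expressing HEK cells in buffer with 0.5 μM YO-PRO-1; dye uptake followed on FLIPR Tetra over four time points. IC50 from maximum fluorescence intensity versus compound concentration.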

Row | SMILES | IC50 [µM]
1 | CN(c1ccc(Cl)c(C(=O)NCC2(O)CCC(F)(F)CC2)c1)c1ccnc(Cl)n1 [Example 57, 2-Chloro-5-[(2-chloro-pyrimidin-4-yl)-methyl-amino]-N-(4,4-difluoro-1-hydroxy-cyclohexylmethyl)-benzamide] | 0.214
2 | COCCN(c1ccc(Cl)c(C(=O)NCC2(O)CCCCC2)c1)c1ccnc(Cl)n1 [Example 32, 2-Chloro-5-[(2-chloro-pyrimidin-4-yl)-(2-methoxy-ethyl)-amino]-N-(1-hydroxy-cyclohexylmethyl)-benzamide] | 0.531
3 | COc1cncc(N(C)c2ccc(Cl)c(C(=O)NCC3(O)CCCCC3)c2)n1 [Example 82, 2-Chloro-N-(1-hydroxy-cyclohexylmethyl)-5-[(6-methoxy-pyrazin-2-yl)-methyl-amino]-benzamide] | 0.076
4 | O=C(NCC1(O)CCCCC1)c1cc(C(F)c2cc[nH]c(=O)n2)ccc1Cl (racemic) [Example 152, rac-2-Chloro-5-[fluoro-(2-oxo-1,2-dihydro-pyrimidin-4-yl)-methyl]-N-(1-hydroxy-cyclohexylmethyl)-benzamide] | 0.025
5 | CN(c1ccc(Cl)c(C(=O)NCC2(CO)CCCCC2)c1)c1ccnc(=O)[nH]1 [Example 56, 2-Chloro-N-(1-hydroxymethyl-cyclohexylmethyl)-5-[methyl-(2-oxo-2,3-dihydro-pyrimidin-4-yl)-amino]-benzamide] | 0.074
6 | CN(c1ccc(Cl)c(C(=O)NCC2(O)CCCCCC2)c1)c1ccnc(Cl)n1 [Example 45, 2-Chloro-5-[(2-chloro-pyrimidin-4-yl)-methyl-amino]-N-(1-hydroxy-cycloheptylmethyl)-benzamide] | 0.089
7 | O=C(NCC1(O)CCCCC1)c1cc(Oc2cccc(=O)[nH]2)ccc1Cl [Example 112, 2-Chloro-N-(1-hydroxy-cyclohexylmethyl)-5-(6-oxo-1,6-dihydro-pyridin-2-yloxy)-benzamide] | 0.043
8 | O=C(NCC1(O)CCCCC1)c1cc(Nc2ccccn2)ccc1Cl [Example 92, 2-Chloro-N-(1-hydroxy-cyclohexylmethyl)-5-(pyridin-2-ylamino)-benzamide] | 0.082
9 | CSc1cc(N(C)c2ccc(Cl)c(C(=O)NCC3(O)CCCCC3)c2)ncn1 [Example 65, 2-Chloro-N-(1-hydroxy-cyclohexylmethyl)-5-[methyl-(6-methylsulfanyl-pyrimidin-4-yl)-amino]-benzamide] | 0.205
10 | O=C(NCC1(O)CCCCC1)c1cc(C(F)(F)c2cc[nH]c(=O)n2)ccc1Cl [Example 151, 2-Chloro-5-[difluoro-(2-oxo-1,2-dihydro-pyrimidin-4-yl)-methyl]-N-(1-hydroxy-cyclohexylmethyl)-benzamide] | 0.031
11 | O=C(NCC1(O)CCCCC1)c1cc(Nc2cnccn2)ccc1Cl [Example 78, 2-Chloro-N-(1-hydroxy-cyclohexylmethyl)-5-(pyrazin-2-ylamino)-benzamide] | 0.439
12 | CN(c1ccc(Cl)c(C(=O)NCC2(O)CCCC2)c1)c1ccnc(=O)[nH]1 [Example 50, 2-Chloro-N-(1-hydroxy-cyclopentylmethyl)-5-[methyl-(2-oxo-2,3-dihydro-pyrimidin-4-yl)-amino]-benzamide] | 0.258
13 | O=C(c1ccc(Cl)c(C(=O)NCC2(O)CCCCC2)c1)c1cc[nH]c(=O)n1 [Example 150, 2-Chloro-N-(1-hydroxy-cyclohexylmethyl)-5-(2-oxo-1,2-dihydro-pyrimidine-4-carbonyl)-benzamide] | 0.077
14 | COc1nccc(C(C)(O)c2ccc(Cl)c(C(=O)NCC3(O)CCCCC3)c2)n1 (racemic) [Example 159, rac-2-Chloro-N-(1-hydroxy-cyclohexylmethyl)-5-[1-hydroxy-1-(2-methoxy-pyrimidin-4-yl)-ethyl]-benzamide] | 0.346
15 | O=C(NCC1(O)CCCCC1)c1cc(Nc2cncnc2)ccc1Cl [Example 76, 2-Chloro-N-(1-hydroxy-cyclohexylmethyl)-5-(pyrimidin-5-ylamino)-benzamide] | 0.418
16 | CN(c1ccc(Cl)c(C(=O)NCC2(C(N)=O)CCCCC2)c1)c1ccnc(Cl)n1 [Example 53, N-(1-Carbamoyl-cyclohexylmethyl)-2-chloro-5-[(2-chloro-pyrimidin-4-yl)-methyl-amino]-benzamide] | 0.576
17 | O=C(NCC1(O)CCCCC1)c1cc(Nc2ncccn2)ccc1Cl [Example 69, 2-Chloro-N-(1-hydroxy-cyclohexylmethyl)-5-(pyrimidin-2-ylamino)-benzamide] | 0.326
18 | Cn1c(Nc2ccc(Cl)c(C(=O)NCC3(O)CCCCC3)c2)cccc1=O [Example 96, 2-Chloro-N-(1-hydroxy-cyclohexylmethyl)-5-(1-methyl-6-oxo-1,6-dihydro-pyridin-2-ylamino)-benzamide] | 0.123
19 | CN(c1ccc(Cl)c(C(=O)NCC2(O)CCCCC2)c1)c1ccncn1 [Example 9, 2-Chloro-N-(1-hydroxy-cyclohexylmethyl)-5-(methyl-pyrimidin-4-yl-amino)-benzamide] | 0.481
20 | O=C(NCC1(O)CCCCC1)c1cc(N(CC2CCCC2)c2cc[nH]c(=O)n2)ccc1Cl [Example 36, 2-Chloro-5-[cyclopentylmethyl-(2-oxo-1,2-dihydro-pyrimidin-4-yl)-amino]-N-(1-hydroxy-cyclohexylmethyl)-benzamide] | 0.185
21 | Cn1c(Oc2ccc(Cl)c(C(=O)NCC3(O)CCCCC3)c2)cccc1=O [Example 113, 2-Chloro-N-(1-hydroxy-cyclohexylmethyl)-5-(1-methyl-6-oxo-1,6-dihydro-pyridin-2-yloxy)-benzamide] | 0.096
22 | O=C(NCC1(O)CCCCC1)c1cc(Nc2ccnc(Cl)n2)ccc1Cl [Example 10, 2-Chloro-5-(2-chloro-pyrimidin-4-ylamino)-N-(1-hydroxy-cyclohexylmethyl)-benzamide] | 0.89
23 | O=C(NCC1(O)CCCCC1)c1cc(Sc2ccnc(Cl)n2)ccc1Cl [Example 135, 2-Chloro-5-(2-chloro-pyrimidin-4-ylsulfanyl)-N-(1-hydroxy-cyclohexylmethyl)-benzamide] | 0.266
24 | O=C(NCC1(O)CCCCC1)c1cc(Cn2cccnc2=O)ccc1Cl [Example 143, 2-Chloro-N-(1-hydroxy-cyclohexylmethyl)-5-(2-oxo-2H-pyrimidin-1-ylmethyl)-benzamide] | 0.377
25 | O=C(NCC1(O)CCCCC1)c1cc(Oc2cccc(F)n2)ccc1Cl [Example 102, 2-Chloro-5-(6-fluoro-pyridin-2-yloxy)-N-(1-hydroxy-cyclohexylmethyl)-benzamide] | 0.037
26 | O=C(NCC1(O)CCCCC1)c1cc(Sc2ccccn2)ccc1Cl [Example 132, 2-Chloro-N-(1-hydroxy-cyclohexylmethyl)-5-(pyridin-2-ylsulfanyl)-benzamide] | 0.046
27 | COCCn1c(N(C)c2ccc(Cl)c(C(=O)NCC3(O)CCCCC3)c2)cccc1=O [Example 98, 2-Chloro-N-(1-hydroxy-cyclohexylmethyl)-5-{[1-(2-methoxy-ethyl)-6-oxo-1,6-dihydro-pyridin-2-yl]-methyl-amino}-benzamide] | 0.332
28 | O=C(NCC1(O)CCCCC1)c1cc(Oc2cncc(Cl)n2)ccc1Cl [Example 122, 2-Chloro-5-(6-chloro-pyrazin-2-yloxy)-N-(1-hydroxy-cyclohexylmethyl)-benzamide] | 0.101
